Reference: US8809537B2, “N-ethyl-4-hydroxyl-1-methyl-5-(methyl(2,3,4,5,6-pentahydroxyhexyl)amino)-2-oxo-N-phenyl-1,2-dihydroquinoline-3-carboxamide” (Teva Pharmaceutical Industries, Ltd., priority 2012, dated 2014)

Tests used:
[1] = formation of MEG-LAQ in LAQ formulation containing meglumine (stability); format: physicochemical; settings: meglumine used in LAQ formulation
Method: MEG-LAQ may form under certain conditions when meglumine is used in LAQ formulation. For example, MEG-LAQ is formed at 40° C. and 75% Relative Humidity (accelerated conditions). MEG-LAQ is also formed at room temperature at <0.1%.

[2] = cited from earlier work
[3] = test system: relapsing MS; settings: Polman et al. 2005; cited from earlier work
[4] = test system: acute experimental autoimmune encephalomyelitis (aEAE) model; settings: U.S. Pat. No. 6,077,851; cited from earlier work

SMILES: CCN(C(=O)c1c(O)c2c(N(C)C[C@H](O)[C@@H](O)[C@H](O)[C@H](O)CO)cccc2n(C)c1=O)c1ccccc1 [MEG-LAQ, N-ethyl-4-hydroxyl-1-methyl-5-(methyl(2,3,4,5,6-pentahydroxyhexyl)amino)-2-oxo-N-phenyl-1,2-dihydroquinoline-3-carboxamide]
- MEG-LAQ formed in LAQ formulation ([1]; 40° C. and 75% Relative Humidity (accelerated conditions)): formed
- MEG-LAQ formed in LAQ formulation ([1]; room temperature): < 0.1%

SMILES: CCN(C(=O)c1c(O)c2c(Cl)cccc2n(C)c1=O)c1ccccc1 [Laquinimod sodium]
- oral bioavailability [2]: high oral bioavailability

SMILES: CCN(C(=O)c1c(O)c2c(Cl)cccc2n(C)c1=O)c1ccccc1 [Laquinimod, N-ethyl-N-phenyl-1,2-dihydro-4-hydroxy-5-chloro-1-methyl-2-oxoquinoline-3-carboxamide]
- development of active MRI lesions [3]: can reduce development of active MRI lesions
- effectiveness in the aEAE model [4]: effective
